The text below walks through data of patent publication US20190224189A1 (priority 2016, published 2019).

In one assay the target is EGFR WT (Homo sapiens, UniProt P00533). As to conditions: wild type EGFR and exon 20 insertion mutants, summary of Table 1.
Assay [1] deals with non-small cell lung cancer with insertion mutation in exon 20. As to conditions: cited from earlier work.
Assay [2] deals with stage IV lung adenocarcinoma carrying Exon 20 ins. As to conditions: cited from earlier work.

Molecules are shown by their SMILES.

Chain of EGFR WT (P00533 668-1210 limits assumed): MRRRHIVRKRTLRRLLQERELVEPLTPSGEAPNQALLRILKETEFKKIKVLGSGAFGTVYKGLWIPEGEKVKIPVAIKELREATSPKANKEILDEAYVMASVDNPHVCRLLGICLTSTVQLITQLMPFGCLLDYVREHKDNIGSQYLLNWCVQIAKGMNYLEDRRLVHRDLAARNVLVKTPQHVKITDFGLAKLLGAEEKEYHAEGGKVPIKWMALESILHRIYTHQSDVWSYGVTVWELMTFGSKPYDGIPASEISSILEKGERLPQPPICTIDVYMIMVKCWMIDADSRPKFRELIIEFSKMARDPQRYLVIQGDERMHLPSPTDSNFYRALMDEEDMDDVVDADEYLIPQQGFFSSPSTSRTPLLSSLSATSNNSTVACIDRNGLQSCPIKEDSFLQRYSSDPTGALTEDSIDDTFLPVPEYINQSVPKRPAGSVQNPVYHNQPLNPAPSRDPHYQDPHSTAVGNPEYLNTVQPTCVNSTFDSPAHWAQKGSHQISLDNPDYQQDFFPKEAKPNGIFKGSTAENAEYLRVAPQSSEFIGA

`CCOc1cc2ncc(C#N)c(Nc3ccc(OCc4ccccn4)c(Cl)c3)c2cc1NC(=O)/C=C/[C@H]1CCCN1C` [Compound A, (E)-N-[4-[[3-chloro-4-(2-pyridylmethoxy)phenyl]amino]-3-cyano-7-ethoxy-6-quinolyl]-3-[(2R)-1-methylpyrrolidin-2-yl]prop-2-enamide]: at EGFR WT, the “inhibitory effect on the enzymatic activity of recombinant human wild type EGFR and the mutated type with inserted mutation in exon 20 (in words)” value is recorded as “strong inhibitory effect”.

As for `CN(C)C/C=C/C(=O)Nc1cc2c(Nc3ccc(F)c(Cl)c3)ncnc2cc1O[C@H]1CCOC1` [SHR141219 (BIBW-2992)], in assay [1] (23 patients with Exon 20 ins, 95% CI: 1.1%-28%), the “ORR evaluated through IRC” value is given as 8.7%. Also, the “median PFS” value in assay [1] (patients with Exon 20 ins, 95% CI: 1.8-4.2 months) was 2.7 months. In addition, the “median OS” value in assay [1] (patients with Exon 20 ins, 95% CI: 4.1-14.2 months) is given as 9.2 months.

Consider `C#Cc1cccc(Nc2ncnc3cc(OCCOC)c(OCCOC)cc23)c1` [erlotinib], for which the “partial remission (PR) rate” value in assay [2] (3 of the 11 patients with Exon 20 ins) was 27%. Moreover, the “median TTP” value in assay [2] (patients with Exon 20 ins who received erlotinib) is recorded as 3 months.
